We go through eleven compounds from paper PMC6278366, “Synthesis and Evaluation of Anticancer Activities of Novel C-28 Guanidine-Functionalized Triterpene Acid Derivatives” (Molecules, 2018).

Data set [1] deals with U937 (histiocytic lymphoma) cells. The experiment in a line: Cytotoxicity assay (7-AAD viability, flow cytometry), U937. The format is cell-based, human. How it is done:
(§1) Cells (Jurkat, K562, U937, HeLa, HEK293 and normal Fibroblasts) were purchased from Russian Cell Culture Collection (Institute of Cytology of the Russian Academy of Sciences, Saint Petersburg, Russia) and cultured according to standard mammalian tissue culture protocols and sterile technique. Human cell lines HEK293 and HeLa were obtained from the HPA Culture Collections (Salisbury, UK). All cell lines used in the study were tested and shown to be free of mycoplasma and viral contamination.
(§2) Cells were maintained in RPMI 1640 (Jurkat, K562, U937) (Gibco, Thermo Fisher Scientific, Waltham, MA, USA) supplemented with 4 mM glutamine, 10% FBS (Sigma, Burlington, MA, USA) and 100 units/mL penicillin-streptomycin (Sigma). All types of cells were grown in an atmosphere of 5% CO2 at 37 °C. The cells were subcultures at 2–3 days intervals. Adherent cells (HEK293, HeLa, fibroblasts) were suspended using trypsin/EDTA and counted after they have reached 80% confluency. Cells were then seeded in 24 well plates at 5 × 10^4 cells per well and incubated overnight. Jurkat, K562, U937 cells were subcultured at 2 day intervals with a seeding density of 1 × 10^5 cells per 24 well plates in RPMI with 10% FBS.
(§3) Viability (Live/dead) assessment was performed by staining cells with 7-AAD (7-Aminoactinomycin D) (Biolegend, San Diego, CA, USA). Cells were treated of test compounds with six different concentrations (1, 5, 10, 15, 30 and 60 μM). After treatment, cells were harvested, washed 1–2 times with phosphate-buffered saline (PBS) and centrifuged at 400× g for 5 min. Cell pellets were resuspended in 200 μL of flow cytometry staining buffer (PBS without Ca^2+ and Mg^2+, 2.5% FBS) and stained with 5 μL of 7-AAD staining solutionfor 15 min at room temperature in the dark. Samples were acquired on NovoCyteTM 2000 FlowCytometry System (ACEA, San Diego, CA, USA) equipped with 488 nm argon laser. Detection of 7-AAD emission was collected through a 675/30 nm filter in FL4 channel.
Background: Flow cytometry measures light scatter and fluorescence of single cells or particles in a stream.

The subject of data set [2] is Jurkat (T-lymphoblastic leukemia) cells. The experiment in a line: cells. The format is cell-based. Particulars: for IC50: viable cells; for SI (selectivity towards Jurkat cells): SI = IC50 fibroblasts/IC50 Jurkat cells. How it is done: as §1, §2, §3
The subject of data set [3] is HeLa (cervical cancer) cells. As to the kind of experiment: Cytotoxicity assay (7-AAD viability, flow cytometry), HeLa. The format is cell-based, human. Particulars: mean ± SE, at least three experiments in duplicate, viable cells. As to the method: as §1
(§4) HEK293, HeLa cell lines and fibroblasts were cultured as monolayers and maintained in Dulbecco’s modified Eagle’s medium (DMEM, Gibco BRL, Waltham, MA, USA) supplemented with 10% foetal bovine serum and 1% penicillin-streptomycin solution at 37 °C in a humidified incubator under a 5% CO2 atmosphere.
as §2, §3

Data set [4] relates to K562 (chronic myeloid leukemia) cells. As to the kind of experiment: Cytotoxicity assay (7-AAD viability, flow cytometry), K562. The format is cell-based, human. Particulars: viable cells. As to the method: as §1, §2, §3
Data set [5] has as its system HEK293 (embryonic kidney) cells. As to the kind of experiment: Cytotoxicity assay (7-AAD viability, flow cytometry), HEK293. The format is cell-based, human. Particulars: at least three experiments in duplicate, viable cells. As to the method:
as §1, §4, §2, §3

The test system of a further data set is normal human fibroblasts. As to the kind of experiment: Cytotoxicity assay (7-AAD viability, flow cytometry), normal fibroblasts. Particulars: mean ± SE, at least three experiments in duplicate. It counts as cell-based. As to the method:
as §1, §4, §2
as §3, with “Cells were treated of test compounds with six different concentrations (1, 5, 10, 15, 30 and 60 μM).” left out

Where [6] appears, read: Homo sapiens, U-937, mean ± SE, at least three experiments in duplicate; viable cells; read-out: IC50 U937.
Setting [7] is: Homo sapiens, Jurkat, mean ± SE, at least three experiments in duplicate, read-out: IC50 Jurkat.
[8] abbreviates: Homo sapiens, K562, mean ± SE, at least three experiments in duplicate, read-out: IC50 K562.
[9] abbreviates: Homo sapiens, HEK293, mean ± SE.
Where [10] appears, read: read-out: IC50 U937; mean ± SE, at least three experiments in duplicate; viable cells.

SMILES strings stand for the structures. Counter-ions that a name gives are not always drawn. Like-named read-outs stand apart in the source and are kept apart here.

For orientation: IC50 means the point on the concentration scale where inhibition reaches its midpoint. As for `CC(=O)O[C@H]1CC[C@@]2(C)C(CC[C@]3(C)C2CCC2C4C(C(C)C)CC[C@]4(C(=O)NCCNC(=N)N)CC[C@]23C)C1(C)C` (stereo partly drawn) [Compound 10b, 3β-N-(2-Ethylgyanidine)-3-O-acetyl-lupane-28-amide hydrochloride], the IC50 was found to be 82 ± 0.14 µM in data set [1] (setting [6]); 67 ± 0.21 µM in data set [2] (setting [7]); 152 ± 0.49 µM in data set [3] (Homo sapiens, HeLa); 98 ± 0.35 µM in data set [4] (setting [8]); 128 ± 0.35 µM in data set [5] (setting [9]); 354 ± 0.46 µM with normal human fibroblasts (Homo sapiens, Fibroblast).
Turning to `CC(C)C1CC[C@]2(C(=O)NCCCCNC(=N)N)CC[C@]3(C)C(CCC4[C@@]5(C)CC[C@H](O)C(C)(C)C5CC[C@]43C)C12` (stereo partly drawn) [Compound 14, 3β-N-(4-Butylgyanidine)-3-hydroxy-lupane-28-amide], the IC50 stood at 20 ± 0.12 µM in data set [1] (setting [6]); 17 ± 0.34 µM in data set [2] (setting [7]); 62 ± 0.24 µM in data set [3] (Homo sapiens, HeLa); 36 ± 0.42 µM in data set [4] (setting [8]); 59 ± 0.21 µM in data set [5] (setting [9]); 96 ± 0.17 µM in the data set on normal human fibroblasts (Homo sapiens, Fibroblast). The “increase in cytotoxic activity against Jurkat cells in comparison with dihydrobetulinic acid 2” value (“increase in cytotoxic activity” below) in data set [2] is given as “approximately 3 fold”. Also, in data set [2], the “SI (selectivity towards Jurkat cells)” value was 5.6.
Consider `CC1(C)CC[C@]2(C(=O)O)CC[C@]3(C)C(=CC[C@@H]4[C@@]5(C)CC[C@H](O)C(C)(C)[C@@H]5CC[C@]43C)[C@@H]2C1` [OA, oleanolic acid, reference compound], for which the IC50 in data set [1] (setting [6]) came out at 186 ± 0.18 µM; in data set [2] (setting [7]) it was 271 ± 0.19 µM; in data set [3] (Homo sapiens, HeLa), 258 ± 0.31 µM; in data set [4] (setting [8]) it was 235 ± 0.24 µM; in data set [5] (setting [9]), 247 ± 0.27 µM; in the data set on normal human fibroblasts (Homo sapiens, Fibroblast), 694 ± 0.17 µM.
Consider `CC(=O)O[C@H]1CC[C@@]2(C)C(CC[C@]3(C)C2CC=C2C4[C@@H](C)[C@H](C)CC[C@]4(C(=O)OCC(CO)(CO)NC(=N)N)CC[C@]23C)C1(C)C` (single isomer, unassigned) [Compound 18b, 3β-[2-Guanidine-3-hydroxy-2-(hydroxymethyl)propyl]-3-O-acetyl-urs-12-en-28-oate trifluoroacetate], for which the 50% inhibitory concentration (IC50) in data set [1] (mean ± SE, at least three experiments in duplicate; viable cells; read-out: IC50 U937) came out at 2.1 ± 0.41 µM; in data set [2] (setting [7]), 6.8 ± 0.32 µM; in data set [3] (Homo sapiens, HeLa), 11 ± 0.27 µM; in data set [4] (mean ± SE, at least three experiments in duplicate, read-out: IC50 K562), 40 ± 0.29 µM; in data set [5] (setting [9]), 13 ± 0.19 µM; in the data set on normal human fibroblasts (Homo sapiens, Fibroblast), 47 ± 0.15 µM.
For `CC(=O)O[C@H]1CC[C@@]2(C)C(CC[C@]3(C)C2CC=C2C4CC(C)(C)CC[C@]4(C(=O)OCC(CO)(CO)NC(=N)N)CC[C@]23C)C1(C)C` (stereo partly drawn) [Compound 20b, 3β-[2-Guanidine-3-hydroxy-2-(hydroxymethyl)propyl]-3-O-acetyl-olean-12-en-28-oate trifluoroacetate], the IC50 in data set [1] (setting [6]) amounted to 6.1 ± 0.43 µM; in data set [2] (setting [7]), 6.7 ± 0.15 µM; in data set [3] (Homo sapiens, HeLa), 13 ± 0.41 µM; in data set [4] (setting [8]), 20 ± 0.14 µM; in data set [5] (setting [9]) it was 12 ± 0.23 µM; in the data set on normal human fibroblasts (Homo sapiens, Fibroblast), 49 ± 0.25 µM.
With `CC(=O)O[C@H]1CC[C@@]2(C)C(CC[C@]3(C)C2CCC2C4C(C(C)C)CC[C@]4(C(=O)NCCN(CCNC(=N)N)CCNC(=N)N)CC[C@]23C)C1(C)C` (single isomer, unassigned) [Compound 12b, 3β-N-[2-(N,N′-bis-Ethylgyanidine)-aminoethyl]-3-O-acetyl-lupane-28-amide dihydrochloride], the IC50 in data set [1] (setting [10]) came to 13 ± 0.06 µM; in data set [2] (read-out: IC50 Jurkat, mean ± SE, at least three experiments in duplicate) it was 14 ± 0.37 µM; in data set [3], 72 ± 0.34 µM; in data set [4] (read-out: IC50 K562, mean ± SE, at least three experiments in duplicate), 52 ± 0.26 µM; in data set [5] (mean ± SE) it was 68 ± 0.29 µM; in the data set with normal human fibroblasts it was 106 ± 0.23 µM.
Take `CC(=O)O[C@H]1CC[C@@]2(C)C(CC[C@]3(C)C2CCC2C4C(C(C)C)CC[C@]4(C(=O)NCCCCNC(=N)N)CC[C@]23C)C1(C)C` (stereo partly drawn) [Compound 11b, 3β-N-(4-Butylgyanidine)-3-O-acetyl-lupane-28-amide hydrochloride]: the IC50 in data set [1] (setting [6]) was found to be 63 ± 0.29 µM; in data set [2] (setting [7]), 16 ± 0.18 µM; in data set [3] (Homo sapiens, HeLa) it was 106 ± 0.51 µM; in data set [4] (setting [8]), 55 ± 0.38 µM; in data set [5] (setting [9]), 98 ± 0.27 µM; in the data set on normal human fibroblasts (Homo sapiens, Fibroblast), 117 ± 0.38 µM. Also, the “increase in cytotoxic activity” value in data set [2] is recorded as “approximately 3 fold”. The “SI (selectivity towards Jurkat cells)” value in data set [2] worked out at 7.3.
Take `C[C@H]1[C@H](C)CC[C@]2(C(=O)O)CC[C@]3(C)C(=CC[C@@H]4[C@@]5(C)CC[C@H](O)C(C)(C)[C@@H]5CC[C@]43C)[C@H]12` [UA, ursolic acid, reference compound]: the IC50 is 17 ± 0.12 µM in data set [1] (setting [6]); 23 ± 0.34 µM in data set [2] (setting [7]); 88 ± 0.35 µM in data set [3] (Homo sapiens, HeLa); 68 ± 0.11 µM in data set [4] (setting [8]); 96 ± 0.22 µM in data set [5] (setting [9]); 324 ± 0.16 µM with normal human fibroblasts (Homo sapiens, Fibroblast).
As to `CC(=O)O[C@H]1CC[C@@]2(C)C(CC[C@]3(C)C2CCC2C4C(C(C)C)CC[C@]4(C(=O)NCCN(CCNC(=N)N)CCNC(=N)N)CC[C@]23C)C1(C)C` (single isomer, unassigned) [Compound 12a, 3β-N-[2-(N,N′-bis-Ethylgyanidine)-aminoethyl]-3-O-acetyl-lupane-28-amide trifluoroacetate], the IC50 was 28 ± 0.25 µM in data set [1] (setting [10]); 22 ± 0.21 µM in data set [2] (Homo sapiens, Jurkat, read-out: IC50 Jurkat, mean ± SE, at least three experiments in duplicate); 101 ± 0.22 µM in data set [3] (Homo sapiens, HeLa); 89 ± 0.18 µM in data set [4] (Homo sapiens, K562, read-out: IC50 K562, mean ± SE, at least three experiments in duplicate); 112 ± 0.19 µM in data set [5] (setting [9]); 149 ± 0.43 µM in the data set with normal human fibroblasts (Homo sapiens, Fibroblast).
`CC(C)C1CC[C@]2(C(=O)NCCCCNC(=N)N)CC[C@]3(C)C(CCC4[C@@]5(C)CCC(=O)C(C)(C)C5CC[C@]43C)C12` (stereo partly drawn) [Compound 9b, N-(4-Butylgyanidine)-3-oxolupane-28-amide dihydrochloride]: the IC50 in data set [1] (setting [6]) is 14 ± 0.16 µM; in data set [2] (setting [7]), 21 ± 0.24 µM; in data set [3] (Homo sapiens, HeLa), 81 ± 0.19 µM; in data set [4] (setting [8]), 57 ± 0.36 µM; in data set [5] (setting [9]), 92 ± 0.34 µM; in the data set with normal human fibroblasts (Homo sapiens, Fibroblast), 179 ± 0.43 µM. Further, the “increase in cytotoxic activity” value in data set [2] was “approximately 3 fold”. Also, in data set [2], the “SI (selectivity towards Jurkat cells)” value came to 8.5.
For `CC(=O)O[C@H]1CC[C@@]2(C)C(CC[C@]3(C)C2CCC2C4C(C(C)C)CC[C@]4(C(=O)NCCCN4CCN(CCCNC(=N)N)CC4)CC[C@]23C)C1(C)C` (stereo partly drawn) [Compound 13a, 3β-N-{[3-(3-Propylguanidine)piperazinyl]propyl}-3-O-acetyl-lupane-28-amide trifluoroacetate], the IC50 came out at 18 ± 0.21 µM in data set [1] (setting [6]); 24 ± 0.27 µM in data set [2] (setting [7]); 79 ± 0.29 µM in data set [3] (Homo sapiens, HeLa); 11 ± 0.33 µM in data set [4] (setting [8]); 74 ± 0.15 µM in data set [5] (setting [9]); 104 ± 0.26 µM in the data set on normal human fibroblasts (Homo sapiens, Fibroblast).
